# Reference: patent publication US4552893A, “Leukotriene antagonists” (SmithKline Beckman Corporation, priority 1983, dated 1985)
# Target: T1, leukotriene induced contraction of guinea pig tracheal tissues (LTD4) (Cavia porcellus, UniProt Q2NNR5)
# T1 construct: Guinea pig (adult male albino Hartley strain) tracheal spiral strips; from tissue; host or cells: guinea pig (adult male albino Hartley strain) tracheal spiral strips
# T1 sequence (Q2NNR5 1-340): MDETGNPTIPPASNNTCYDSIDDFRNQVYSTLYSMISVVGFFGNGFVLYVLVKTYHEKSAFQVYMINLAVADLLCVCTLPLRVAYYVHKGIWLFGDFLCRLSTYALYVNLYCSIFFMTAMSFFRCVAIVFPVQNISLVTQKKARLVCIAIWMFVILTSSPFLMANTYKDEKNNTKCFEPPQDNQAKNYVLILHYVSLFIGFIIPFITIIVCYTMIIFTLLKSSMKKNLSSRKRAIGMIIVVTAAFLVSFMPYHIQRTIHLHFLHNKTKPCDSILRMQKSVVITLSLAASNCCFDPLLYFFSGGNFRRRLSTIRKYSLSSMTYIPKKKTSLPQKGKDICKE
# Experiment: Inhibition of LTD4-induced contraction of guinea pig tracheal spiral strips in vitro (leukotriene antagonist activity)
# Format: cell-based
# Settings: LTD4 cumulative concentration-response, 30 min pretreatment with test compound, meclofenamic acid 1 μM, pA2 = -log KB from EC30 (30% of carbachol contraction)
# Experimental: The leukotriene antagonist activity of the compounds of this invention is measured by the ability of the compound to inhibit leukotriene induced contraction of guinea pig tracheal tissues in vitro. The following methodology was employed:
# In vitro: Guinea pig (adult male albino Hartley strain) tracheal spiral strips of approximate dimensions 2 to 3 mm cross-sectional width and 3.5 cm length were bathed in modified Krebs buffer in jacketed 10 ml tissue bath and continously aerated with 95% O2 /5% CO2. The tissues were connected via silk suture to force displacement transducers for recording isometric tension. The tissues were equilibrated for 1 hr., pretreated for 15 minutes with meclofenamic acid (1 μM) to remove intrinsic prostaglandin responses, and then pretreated for an additional 30 minutes with either the test compound or vehicle control. A cumulative concentration-response curve for LTD4 on triplicate tissues was generated by successive increases in the bath concentration of the LTD4. […]
# Calculations: The averages of the triplicate LTD4 concentration-response curves both in the presence and absence of the test compound were plotted on log graph paper. The concentration of LTD4 needed to elicit 30% of the contraction elicited by carbachol was measured and defined as the EC30. The pA2 value for the test compound was determined by the following equations: [formula] […]
structure (smiles),measurement,value
"CCCCCCCCCCCC/C=C\C(SCCC(=O)O)C(O)CO (stereo not shown) [3-[(2-Carboxyethyl)thio]-4(Z)-heptadecen-1,2-diol]",Kb,6.31 µM
